Experimental data as given in patent US10273313B2, “Multimeric mannosides, a process for preparing the same and their uses as a drug” (CENTRE NATIONAL DE LA RECHERCHE SCIENTIFIQUE, priority 2012, dated 2019).
Converted amounts (≈) assume the structure as drawn. Read-outs that look alike come from different tables or passages of the source.

Assays:
[1] = test system: E. coli strain UTI89 expressing type-1 fimbriae; assay: Bacterial crosslinking, epi-fluorescence microscopy; type: cell-based, Escherichia coli; details: acridin orange colored UTI89
Method: The possibility to capture living bacteria in solution with β-CD-based glycol-clusters 2 and 4, using epi-fluorescence microscopy was investigated.
It was decided to evaluate if the FimH aggregation evidenced in ITC, DLS and SAXS could also occur when the lectin is attached at the tip of the bacteria pili. E. coli strain UTI89 expressing type-1 fimbriae. Said bacteria were diluted from the culture medium into PBS and glyco-conjugated in a ten-fold dilution series of 2 or 4 were added. Bacterial cells were then colored with acridin orange.
100 μl of glycoconjugate-agglutinated E. coli were washed in 1 ml PBS, resuspended in 200 μl 0.1% acridin orange and left at room temperature for 2.5 hours. The bacterial cells were washed again in 1 ml PBS to remove unbound acridin orange. A microscope glass was rinsed with 100% EtOH and next dried at the air.

bladder cell line 5637 = assay: Anti-adhesives for bacterial bladder cell binding; type: cell-based; details: ten-fold dilution series
Method: The anti-adhesive capacities of the HM-derivatized cyclodextrins 1-4 were tested in vitro on the bladder cell line 5637, in a procedure analogous as previously described (Wellens, A. et al., PLoS ONE 3: e2040 (2008)). The CD conjugates 1-4 were diluted in a ten-fold series. The minimum inhibitory concentrations (MIC) indicate the concentrations of sugars at which we see some inhibition of binding of FimH to the bladder cells, they do however not indicate complete inhibition. MIC values for the CD-conjugates 1-4 followed a similar trend as the inhibitory concentrations recorded in HIA.
The anti-adhesive capacities of the n-heptyl α-D-mannoside-derivatized cyclodextrins 1-4 were tested in vitro on the bladder cell line 5637, in a procedure analogous to as described in (Wellens, A. et al., PLoS ONE 3: e2040 (2008)). The ligands have been diluted 10-fold and this is also the resolution limit of these tests.

[2] = test system: AIEC LF82 strain adhesion to T84 intestinal epithelial cells; assay: Adhesion assay on T84 cells, cells incubated 1 h with mannoside prior infection (Example 21.1); type: cell-based, Escherichia coli
Method: E. coli strain LF82 was isolated from a chronic ileal lesion of a patient with Crohn's disease (CD). Bacteria were grown routinely in Luria-Bertani (LB) broth overnight at 37° C. Intestinal epithelial cells T84 derived from colonic adenocarcinoma were maintained in an atmosphere containing 5% CO2 at 37° C. in DMEM/F12 (50/50) medium supplemented with 10% (v/v) heat-inactivated fetal calf serum (FCS), 1% L-glutamine, 100 000 U·l^−1 penicillin, 100 mg·l^−1 streptomycin, 25 μg·l^−1 amphotericin B.
T84 cells were seeded in 48-well tissue culture plates with 1.5×10^5 cells per well and grown for 48 h. Cells were incubated 1 h prior infection with each mannoside at a final concentration of 100; 10; 1 or 0.1 μM in complete medium without antibiotics, containing heat inactivated fetal calf serum (FCS) and were next infected with AIEC LF82 strain at a multiplicity of infection (MOI) of 10 bacteria per cell. After a 3 h incubation period at 37° C., the monolayers were washed in phosphate-buffered saline (PBS; pH 7.2). The epithelial cells were then lysed with 1% Triton X-100 in deionized water. Samples were diluted and plated onto Luria Bertani agar plates to determine the number of cfu recovered from the lysed monolayers.
Results were expressed in percentage of residual adhesion, considering adhesion level of AIEC LF82 without mannoside treatment as 100%.

human Jurkat cells = assay: Prevention of FimH-induced apoptosis of Jurkat cells (24 h)
Method: Eventually, we tested the ability of mannose-based inhibitors to prevent the induction of cell death of human Jurkat cells under the treatment with FimH. We cultures cells with the indicated compound for 24 h and counter percentage of viable (AnV−/Pi−), apoptotic (AnV+/Pi−) and necrotic cells (AnV+/PI+). […] 2. […] 3.
Apoptosis was induced by UV-B irradiation with 90 mJ/cm^2, apoptosis of human PMN cells was induced by 24 h aging. To quantify the rate of apoptosis, cells were analyzed by flow cytometry or fluorescent microscopy. Amongst other features, apoptosis is characterized by blebbing of the cellular membrane, leading to a decrease in the forward scatter (FSC) and an increase in the sideward scatter (SSC). For detection of phosphatidylserine (PS) exposure on the cell surface staining with FITC conjugated annexin V (Böhringer, Mannheim, Germany) in combination with propidium iodide (PI) (AxV/PI) was performed. 200.000 cells were stained for 30 minutes at 4° C. with 200 ng of AxV-FITC and 500 ng propidium iodide (PI) in 500 μl Ringer's solution [Nicoletti, Migliorati, Pagliacci, Grignani and Riccardi, A rapid and simple method for measuring thymocyte apoptosis by propidium iodide staining and flow cytometry. J Immunol Methods, 1991. 139.271-9]. The samples were immediately analyzed by flow cytometry of fluorescent microscopy.

[3] = test system: AIEC strain LF82 adhesion to T84 intestinal epithelial cells; assay: Adhesion assay on T84 cells with thiazolylaminomannosides (Example 22.3); type: cell-based, Escherichia coli
Summary of the method: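 CEACAM6-overexpressing T84 cells pre-incubated 1 h with compound (0.1, 1, 10, 100 μM), then infected with AIEC LF82 at MOI 10 for 3 h in compound presence. Cell-associated bacteria counted after washing; residual adhesion expressed relative to untreated (100%).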

FimH [4] = target: T1, FimH (Escherichia coli, UniProt P08191); details: Surface Plasmon Resonance (SPR); read-out: Dissociation constant of the HM-FimH complex; cited from earlier work
T1 sequence (P08191 22-300): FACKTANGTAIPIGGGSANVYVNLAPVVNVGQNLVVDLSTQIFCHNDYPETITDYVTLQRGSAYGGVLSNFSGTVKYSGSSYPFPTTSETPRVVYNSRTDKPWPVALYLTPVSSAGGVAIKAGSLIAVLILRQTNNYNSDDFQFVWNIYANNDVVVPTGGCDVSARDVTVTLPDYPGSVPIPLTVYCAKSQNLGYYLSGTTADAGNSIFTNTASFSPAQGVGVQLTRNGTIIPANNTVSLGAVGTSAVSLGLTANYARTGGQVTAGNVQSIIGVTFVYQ

FimH [5] = target: T1, FimH; details: Isothermal Titration calorimetry (ITC); read-out: Dissociation constant of the HM-FimH complex; cited from earlier work

Row | SMILES | Bacterial clustering in solution [1] | MIC, anti-adhesive potency on bladder cell line 5637 (bladder cell line 5637) [nM] | Concentration reaching around 75% of binding inhibition (25% line) [2] [µM] | Toxicity to Jurkat cells (human Jurkat cells) | Prevention of apoptosis induction by FimH (human Jurkat cells; 10 nM) | Prevention of apoptosis induction by FimH (human Jurkat cells; 100 nM) | Inhibitory potency relative to α-D-mannose [3] [times] | Inhibitory effect on adhesion ([3]; 100 nM) | AIEC remaining attached to the cells (residual adhesion) ([3]; 1 μM) | Residual adhesion ([3]; 10 μM) [%] | Kd (FimH [4]) [nM] | Kd (FimH [5]) [nM]
1 | OCC1OC(OCCCCCCCOCc2cn(CC3OC4OC5C(Cn6cc(COCCCCCCCOC7OC(CO)C(O)C(O)C7O)nn6)OC(OC6C(Cn7cc(COCCCCCCCOC8OC(CO)C(O)C(O)C8O)nn7)OC(OC7C(Cn8cc(COCCCCCCCOC9OC(CO)C(O)C(O)C9O)nn8)OC(OC8C(Cn9cc(COCCCCCCCOC%10OC(CO)C(O)C(O)C%10O)nn9)OC(OC9C(Cn%10cc(COCCCCCCCOC%11OC(CO)C(O)C(O)C%11O)nn%10)OC(OC%10C(Cn%11cc(COCCCCCCCOC%12OC(CO)C(O)C(O)C%12O)nn%11)OC(OC3C(O)C4O)C(O)C%10O)C(O)C9O)C(O)C8O)C(O)C7O)C(O)C6O)C(O)C5O)nn2)C(O)C(O)C1O (stereo not shown) [Compound 2] | formation of bacterial clusters | 400 (≈ 1.45 µg/mL) | 1 | not toxic | effectively prevented apoptosis induction | effectively prevented apoptosis induction |  |  |  |  |  | 
2 | CCCCCCCO[C@H]1O[C@H](CO)[C@@H](O)[C@H](O)[C@@H]1O [HM, Heptylmannoside, reference compound] |  | 4000 (≈ 1.11 µg/mL) |  |  |  |  | 100 | no significant effect | No significant decrease | 52.4 | 5 | 7
